US11376253B2, “Agent for treating nocturnal pollakiuria” (KYORIN PHARMACEUTICAL CO., LTD., priority 2017, dated 2022)

How the values were obtained:
[1] = system: Japanese OAB patients; assay: twelve-week randomized, double-blind, placebo-controlled, parallel-group study of nocturnal pollakiuria in OAB patients; type: in vivo, human; settings: for Difference in amount of change (vibegron group − placebo group), least squares mean (95% confidence interval) / Amount of change from baseline in the frequency of urination at night, least squares mean (95% confidence interval): 12 weeks
Protocol: The efficacy of vibegron on nocturnal pollakiuria in OAB patients was evaluated in a twelve-week randomized, double-blind, placebo-controlled, parallel-group study.
Japanese OAB patients received either vibegron (50 mg/day or 100 mg/day) or a placebo for 12 weeks. Both 50 mg/day of vibegron and 100 mg/day of vibegron were orally administered in the form of a tablet once daily after breakfast. […] There was no difference among the dose groups in terms of subject background such as gender, age, and BMI.
The therapeutic effect of vibegron on nocturnal pollakiuria in OAB patients was evaluated based on an average frequency of urination at night, which was determined by using a urination diary to investigate the frequency of urination for three days prior to visits. In this context, nighttime is defined as the period of time between when one goes to bed to sleep and when one wakes up and gets out of bed. Constrained longitudinal data analysis model (cLDA) was used for statistical analysis to estimate the least squares mean and the two-sided 95% confidence interval of each group. Furthermore, the cLDA method was used to estimate the least squares mean difference at evaluation times between the 50 mg or 100 mg vibegron groups and the placebo group and the two-sided 95% confidence intervals thereof, thereby testing the least squares mean difference compared with placebo.
Numerical values in Table 2 represent the average of the frequency of urination at night at baseline (before drug administration), the least squares mean of the amount of change from baseline in the average frequency of urination at night after 12 weeks of administration, the least squares mean of difference in the amount of change between the vibegron groups and the placebo group, and p-values. In this regard, when the amount of change is less than 0, the smaller value represents a greater therapeutic effect. […] “Patients whose frequency of urination at night is not zero at baseline” are represented as a main subject population, and other “patients whose frequency of urination at night is one or more times at baseline” and “patients whose frequency of urination at night is two or more times at baseline” are represented as populations who have more prominent symptoms of nocturnal pollakiuria. FIG. 1 is a graph in which the numerical values represent the least squares mean (ΔLSmean) of the amount of change from baseline in the frequency of urination at night after 12 weeks of administration.

[2] = system: Japanese OAB patients; assay: as above; type: in vivo, human; settings: for Least squares mean of the amount of change from baseline in the first voided volume at night / Least squares mean of the amount of change from baseline in the time to first awakening (HUS) / Least squares mean of the amount of change from baseline in the single voided volume at night: patients with frequency of urination at night one or more times per day at baseline; for Least squares mean of the amount of change from baseline in the first voided volume at night: placebo 24.80 mL; for Least squares mean of the amount of change from baseline in the time to first awakening (HUS): placebo 65.08 minutes; for Least squares mean of the amount of change from baseline in the single voided volume at night: placebo +19.42 mL
[3] = 50 mg and 100 mg groups, patients with nocturnal pollakiuria with nocturnal polyuria, one or more times per day at baseline
[4] = 50 mg/day oral, patients whose frequency of urination at night is two or more times at baseline
[5] = 100 mg/day oral, patients whose frequency of urination at night is not zero at baseline
[6] = 50 mg and 100 mg groups, patients with nocturnal pollakiuria without nocturnal polyuria, one or more times per day at baseline

In the case of `O=C(Nc1ccc(C[C@@H]2CC[C@H]([C@H](O)c3ccccc3)N2)cc1)[C@@H]1CCc2nccc(=O)n21` [Vibegron, (6S)—N-[4-({(2S,5R)-5-[(R)-hydroxy(phenyl)methyl]pyrrolidin-2-yl}methyl)phenyl]-4-oxo-4,6,7,8-tetrahydropyrrolo[1,2-a]pyrimidine-6-carboxamide], the “Frequency of urination at night compared with the placebo group” value [1, 3] is reported as “reduced in the 50 mg vibegron group and the 100 mg vibegron group compared with the placebo group but the difference was not significant”, the “Difference in amount of change (vibegron group − placebo group), least squares mean (95% confidence interval)” value ([1]; 50 mg/day oral, patients whose frequency of urination at night is not zero at baseline) is reported as −0.11 (−0.21, −0.02) and the “Difference in amount of change (vibegron group − placebo group), least squares mean (95% confidence interval)” value ([1]; 50 mg/day oral, patients whose frequency of urination at night is one or more times at baseline) is reported as −0.16 (−0.28, −0.04). For the same compound, the “Amount of change from baseline in the frequency of urination at night, least squares mean (95% confidence interval)” value [1, 4] was −1.00 (−1.17, −0.83), the “Difference in amount of change (vibegron group − placebo group), least squares mean (95% confidence interval)” value [1, 4] was −0.15 (−0.38, 0.08) and the “Amount of change from baseline in the frequency of urination at night, least squares mean (95% confidence interval)” value [1, 5] was −0.62 (−0.70, −0.55). For the same compound, the “Difference in amount of change (vibegron group − placebo group), least squares mean (95% confidence interval)” value [1, 5] was −0.16 (−0.25, −0.06), the “Difference in amount of change (vibegron group − placebo group), least squares mean (95% confidence interval)” value ([1]; 100 mg/day oral, patients whose frequency of urination at night is one or more times at baseline) was −0.21 (−0.33, −0.09) and the “Amount of change from baseline in the frequency of urination at night, least squares mean (95% confidence interval)” value ([1]; 100 mg/day oral, patients whose frequency of urination at night is two or more times at baseline) was −1.16 (−1.34. −0.99). For the same compound, the “Single voided volume at night compared with the placebo group” value [2, 3] was “significantly increased”, the “Frequency of urination at night compared with the placebo group” value [2, 6] was “significantly reduced” and the “Single voided volume at night compared with the placebo group” value [2, 6] was “significantly increased”. The “Amount of change from baseline in the frequency of urination at night, least squares mean (95% confidence interval)” value ([2]; 50 mg/day oral, 12 weeks, patients whose frequency of urination at night is not zero at baseline) was −0.58 (−0.65, −0.51), the “Amount of change from baseline in the frequency of urination at night, least squares mean (95% confidence interval)” value ([2]; 50 mg/day oral, 12 weeks, patients whose frequency of urination at night is one or more times at baseline) was −0.74 (−0.82, −0.65) and the “Least squares mean of the amount of change from baseline in the first voided volume at night” value ([2]; 50 mg/day, 12 weeks) was 48.71 mL. The “Least squares mean of the amount of change from baseline in the time to first awakening (HUS)” value ([2]; 50 mg/day, 12 weeks) was 81.79 min, the “Least squares mean of the amount of change from baseline in the single voided volume at night” value ([2]; 50 mg/day, 12 weeks) was “+47.85 mL” and the “Amount of change from baseline in the frequency of urination at night, least squares mean (95% confidence interval)” value ([2]; 100 mg/day oral, 12 weeks, patients whose frequency of urination at night is one or more times at baseline) was −0.78 (−0.87, −0.70). The “Difference in amount of change (vibegron group − placebo group), least squares mean (95% confidence interval)” value ([2]; 100 mg/day oral, 12 weeks, patients whose frequency of urination at night is two or more times at baseline) was −0.31 (−0.55, −0.08), the “Least squares mean of the amount of change from baseline in the first voided volume at night” value ([2]; 100 mg/day, 12 weeks) was 71.42 mL and the “Least squares mean of the amount of change from baseline in the time to first awakening (HUS)” value ([2]; 100 mg/day, 12 weeks) was 90.95 min. The “Least squares mean of the amount of change from baseline in the single voided volume at night” value ([2]; 100 mg/day, 12 weeks) was “+58.14 mL”.
